The values below come from patent US4427693A, “Antiinflammatory 4,5-diaryl-α,α-bis (polyhalomethyl)-2-thiophenemethanamines” (E. I. Du Pont de Nemours and Company, priority 1981, dated 1984).

Like-named read-outs stand apart in the source and are kept apart here.

This assay concerns Adjuvant-Induced Arthritis. Briefly: Established Adjuvant-Induced Arthritis in Rats. It counts as in vivo, Charles River Lewis male rats. The following applies: for ED50: Rattus norvegicus, 168 h, read-out: ED50 = effective dose for 50% decrease from control paw volume. The procedure:
A procedure for detecting and comparing the antiinflammatory activity of compounds in this series and standard drugs for which there is a good correlation with human efficacy is the adjuvant-induced arthritis test in rats.
Established Adjuvant-Induced Arthritis in Rats
Charles River Lewis male rats (130-150 grams) are injected subcutaneously in plantar area of the right hind paw with 0.1 ml of adjuvant (Difco heatkilled, lyophilized Mycobacterium butyricum suspended in mineral oil 5 mg/ml). 20 Non-arthritic controls are injected with mineral oil. The animals are held for 2 weeks to allow development of arthritis. Paw volumes (uninjected, left hind paw) are measured and the adjuvant injected rats are culled and distributed to treatment groups of 10 of equal disease severity. Non-arthritic controls are distributed to 2 groups of 10. The rats are given oral doses of compound or PVA-Acacia (Polyvinyl Alcohol 1%, Gum Acacia, U.S.P. 5%, Methylparaben 0.5%) (10 ml/kg) by gavage on that day and on the 6 following days. One day after the last dose the paw volumes (uninjected, left hind paw) are measured using a Ugo Basile Volume Differential Meter Model 7101. [formula]
Dose-response regression lines of the % decrease are plotted on semi-log paper by visual fit and the ED50% decrease from control paw volume is determined by inspection.

[1] abbreviates: oral by gavage, daily, 7 days, dose-response regression lines, by visual fit.

Regarding `CC(=O)Oc1ccccc1C(=O)O` [Aspirin, reference compound], the 50% effective dose (ED50) (po) worked out at 270 mg/kg.

In the case of `COc1ccc2c(c1)c(CC(=O)O)c(C)n2C(=O)c1ccc(Cl)cc1` [Indomethacin, reference compound], the ED50 (po) was 0.25 mg/kg. Take `NC(c1cc(-c2ccc(F)cc2)c(-c2ccc(F)cc2)s1)(C(F)(F)F)C(F)(F)F` [Example 2, 4,5-bis(4-fluorophenyl)-α,α-bis(trifluoromethyl)-2-thiophenemethanamine]: under setting [1], the ED50 was determined as 1.3 mg/kg. Same read-out and setting: in the case of `CSc1ccc(-c2sc(C(N)(C(F)(F)F)C(F)(F)F)cc2-c2ccc(F)cc2)cc1` [Example 3, 4-(4-fluorophenyl)-5-(4-methylthiophenyl)-α,α-bis(trifluoromethyl)-2-thiophenemethanamine] it was 9 mg/kg. In the case of `NC(c1cc(-c2ccccc2F)c(-c2ccccc2F)s1)(C(F)(F)F)C(F)(F)F` [Example 18], the “Percent Decrease From Control Paw Volume” value (daily oral dose 81 mg/kg, 7 days, p < 0.001 compared to control by Students "t" test) stood at 41%.

In the case of `COc1ccc(-c2cc(C(N)(C(F)(F)F)C(F)(F)F)sc2-c2ccc(OC)cc2)cc1` [Example 1, 4,5-Bis(4-methoxyphenyl)-α,α-bis(trifluoromethyl)-2-thiophenemethanamine], where the note is “daily oral dose 27 mg/kg, 7 days, p < 0.001 compared to control by Students "t" test”, the “Percent Decrease From Control Paw Volume” value amounted to 47%.

With `CCCCC1C(=O)N(c2ccccc2)N(c2ccccc2)C1=O` [Phenylbutazone, reference compound], the ED50 under setting [1] turned out to be 10 mg/kg.

Regarding `NC(c1cc(-c2ccc(F)cc2)c(-c2ccc(F)cc2)s1)(C(F)F)C(F)(F)F` (stereo not shown) [Example 7], the median effective dose (ED50) under setting [1] was 10.5 mg/kg. In the case of `NC(c1cc(-c2ccc(F)cc2)c(-c2ccc(Cl)cc2)s1)(C(F)(F)F)C(F)(F)F` [Example 4], the “Percent Decrease From Control Paw Volume” value (daily oral dose 9 mg/kg, 7 days, p < 0.1 compared to control by Students "t" test) is on record as 37%. `NC(c1cc(-c2ccccc2)c(-c2ccccc2)s1)(C(F)(F)F)C(F)(F)F` [Example 5]: the ED50 under setting [1] worked out at 17 mg/kg.

As for `NC(c1cc(-c2ccc(F)cc2)c(-c2ccc(F)cc2)s1)(C(F)(F)F)C(F)(F)Cl` (stereo not shown) [Example 6], the 50% effective dose (ED50) under setting [1] stood at 3.8 mg/kg.

In the case of `CNC(c1cc(-c2ccc(F)cc2)c(-c2ccc(F)cc2)s1)(C(F)(F)F)C(F)(F)F` [Example 28, 1-[4,5-Bis(4-fluorophenyl)thiophen-2-yl]-2,2,2-trifluoro-1-trifluoromethyl-N-methylethanamine], the ED50 under setting [1] is 6.2 mg/kg. For `Cc1ccc(-c2cc(C(N)(C(F)(F)F)C(F)(F)F)sc2-c2ccc(C)cc2)cc1` [Example 13], the “Percent Decrease From Control Paw Volume” value (daily oral dose 24 mg/kg, 7 days, p < 0.05 compared to control by Students "t" test) is recorded as 27%.
